Test: storage stability test of eye drop in resin container (content by HPLC)
Type: physicochemical
Description: The content of the present prostaglandin derivative refers to the ratio (%) of the concentration of the present prostaglandin derivative existing in the aqueous liquid preparation after a predetermined period of time to the original concentration of the present prostaglandin derivative existing in the aqueous liquid preparation when the prostaglandin-containing product is produced throughout the claims and the specification. For example, in the case where the present prostaglandin derivative is dissolved in water, it refers to the ratio (%) of the concentration of the present prostaglandin derivative existing in the aqueous solution after a predetermined period of time to the concentration of the present prostaglandin derivative dissolved in water.
A 5-ml eye drop resin container was obtained by injection blow molding of a propylene/ethylene random copolymer (containing an ethylene component in an amount of 3%).
The resin container obtained in the section of “2. Production of Resin Container” was subjected to a sterilization treatment with ethylene oxide gas (sterilization with ethylene oxide at a concentration of 20% (v/v), at a temperature of 40° C. and a relative humidity of 50% for 3 hours), and then, in the container, Eye drop 1 obtained in the section of “1. Preparation of Eye Drop” was charged. […] The concentration of the present compound in the container was measured by high performance liquid chromatography before the initiation of storage and after 30-day storage. The content of the present compound was calculated taking the concentration of the present compound at the time of initiation of storage as a standard (100%). Incidentally, each value in Table 1 is expressed as an average of three cases.
Except that the sterilization treatment with ethylene oxide gas was altered into a sterilization treatment with gamma rays (32 kGy), the content of the present compound was calculated in the same manner as in Example 1.
Except that the sterilization treatment with ethylene oxide gas was altered into a sterilization treatment with electron rays (23 kGy), the content of the present compound was calculated in the same manner as in Example 1.
Except that a container with no sterilization treatment was used as the container, the content of the present compound was calculated in the same manner as in Example 1.
Except that Eye drop 1 was altered into Eye drop 2, the content of latanoprost was calculated in the same manner as in Example 1.
Except that Eye drop 1 was altered into Eye drop 2 and the sterilization treatment with ethylene oxide gas was altered into a sterilization treatment with gamma rays (32 kGy), the content of latanoprost was calculated in the same manner as in Example 1. […]

[1] = sterilized container compared with container with no sterilization treatment

Structure (SMILES) | content in the eye drop (container sterilized with gamma rays, electron rays or ethylene oxide gas) | content in the eye drop after a predetermined period of time [1] | content in the eye drop after a predetermined period of time (ethylene oxide gas sterilized container in comparison with gamma-ray or electron-ray sterilized container)
CC(C)OC(=O)CCC/C=C\C[C@@H]1[C@@H](CC[C@@H](O)CCc2ccccc2)[C@H](O)C[C@@H]1O [latanoprost, 13,14-dihydro-17-phenyl-18,19,20-trinor-prostaglandin F2α isopropyl ester] | did not decrease | comparable | –
CC(C)OC(=O)CCC/C=C\C[C@@H]1[C@@H](/C=C/C(F)(F)COc2ccccc2)[C@H](O)C[C@@H]1O [present compound, 16-phenoxy-15-deoxy-15,15-difluoro-17,18,19,20-tetranor-prostaglandin F2α isopropyl ester] | – | comparable | higher

Reference: patent US20080139648A1, “Product Containing Prostaglandin Having Fluorine Atom In Its Molecule” (Santen Pharmaceutical Co., Ltd., priority 2004, published 2008)
